The results in this text go back to patent US7247611B2, “Compositions and methods for promoting internalization and degradation of urokinase-type plasminogen activator” (The Trustees of the University of Pennsylvania, priority 1997, dated 2007).

“Also recorded” adds a separate entry of the source.

Experiment [1] relates to LM-TK^− cells (α2MR^+/LRP, uPAR^−). Briefly: Ligand binding assay: binding of 125I-labeled scuPA, tcuPA and their suPAR complexes to LM-TK^− cells. It counts as cell-based. The following applies: for promotion of scuPA binding to LM-TK^− cells: 1B. The protocol:
Briefly, LM-TK^− cells were suspended in DMEM (GIBCO, Grand Island, N.Y.) containing 10% (v/v) fetal calf serum and were grown to confluence at 37° C. overnight in 96-well Falcon™ multiwell tissue culture dishes (Becton Dickinson, Lincoln Park, N.J.). The cells were chilled for one hour on ice and were washed twice with chilled binding buffer. ^125I-labeled ligands, with or without 50-fold molar excess of non-labeled ligands, were added to the cells in the presence or absence of 0-300 micromolar peptide, and the cell cultures were incubated for two hours at 4° C. The cells were washed four times with binding buffer, solubilized in 0.1 N NaOH, and the cell extract was assessed for radioactivity. […] Assays were repeated at least three times, and data presented herein represent the mean and standard deviation.

The next experiment deals with LM-TK^− cells. The experiment in a line: Internalization and degradation of 125I-scuPA by LM-TK^− cells. It counts as cell-based. Here is the method:
LM-TK^− cells were grown overnight at 37° C. to confluence in 48-well Falcon™ Multiwell tissue culture dishes (Becton Dickinson, Lincoln Park, N.J.). Cells were prechilled on ice for one hour, washed twice with a buffer comprising TBS, 4 millimolar Ca^2+, and 3% (w/v) BSA, and incubated for one hour at room temperature with the same buffer or with buffer supplemented with either 400 nanomolar rRAP or 100 micrograms per milliliter IgG anti-α2MR/LRP. The buffer was removed, ^125I -scuPA was added to the cells, and the cells were incubated for two hours at 4° C. in the presence of 0-300 micromolar peptide, 0 or 400 nanomolar rRAP, and 0 or 100 micrograms per milliliter anti-α2MR/LRP. Unbound ligand was removed and cells were washed five times with the buffer. DMEM comprising 4 millimolar Ca^2+, 0 or 400 nanomolar rRAP, and 0 or 100 micrograms per milliliter anti-α2MR/LRP was added to the cells, and the cells were incubated for eighteen hours at 37° C. […] Briefly, to measure internalization, cells were washed twice with the buffer, a solution comprising 50 millimolar glycine 150 millimolar NaCl at pH 3.0 was added to the cells, and the cells were incubated for fifteen minutes at 4° C. to dissociate cell surface-bound ligands. […] Radioactivity in the cell extract was assessed.

For a further experiment, the target named is T1, PAI-1 (Homo sapiens, UniProt P05121).
T1 construct: purchased American Diagnostica, Inc. (Greenwich, Conn.)
The experiment in a line: Assessment of plasminogen activator activity (inhibition of PAI-1 activity, tcuPA as substrate of PAI-1). The following applies: 5 nanomolar tcuPA, 200 micromolar peptide, 25 nanomolar PAI-1; FIG. 4. It counts as biochemical. Here is the method:
A solution comprising 5 nanomolar tcuPA, 0 or 200 micromolar peptide EEIIMD (SEQ ID NO: 3), and 0 or 200 micromolar peptide REIIMD (SEQ ID NO: 4) was incubated for thirty minutes. The solution was then added to a reaction mixture comprising 25 nanomolar PAI-1, 50 nanomolar Glu-plasminogen, and 50 micromolar chromogenic substrate, and the optical density of the mixture at 405 nanometers was measured continuously, as described (Higazi et al., 1996, Blood 87:3545-3549).

The subject of the next experiment is purified α2MR/LRP. Briefly: Solid phase binding assay of 125I-labeled ligands to immobilized purified α2MR/LRP. Here is the method: To measure the binding of labeled ligands to α2MR/LRP, a 96-well microtiter plate was incubated with 3 micrograms per milliliter purified α2MR/LRP or with 3 micrograms per milliliter BSA in TBS containing 4 millimolar Ca^2+ overnight at 4° C. The buffer was removed, and the non-reacted sites on the plate were blocked using a blocking solution comprising TBS, 4 millimolar Ca^2+, 0.05% (v/v) Tween-20, and 3% (w/v) BSA. The wells of the plate were filled with the blocking solution and incubated for one hour at 4° C. Next, the blocking solution was removed, each well was filled with a solution comprising blocking solution and 0 or 200 nanomolar rRAP, and the plate was incubated at 4° C. for another hour. Binding of ^125I-labeled ligands to immobilized α2MR/LRP was determined as described (Higazi et al., 1996, Blood 88:542-551; Nykjaer et al., 1993, J. Biol. Chem. 268:15048-15055).

The next experiment deals with scuPA-uPAR complex (Homo sapiens, UniProt P00749). The experiment in a line: scuPA-uPAR complex formation. It counts as binding.

Turning to “EEIIMD [hexapeptide homologous with amino acids 350-355 of PAI-1]”, the “effect on binding of tcuPA to LM-TK^− cells” value in experiment [1] was “failed to stimulate binding of tcuPA; also recorded: had no effect”. For the same substance, in experiment [1] (FIG. 1A), the “promotion of scuPA binding to LM-TK^− cells” value was “promoted binding”. Also, in experiment [1] (FIG. 1B), the “peptide concentration giving near-maximal effect on scuPA binding to LM-TK^− cells” value was “approximately 300 micromolar”. Also, in experiment [1] (FIG. 3), the “effect on binding of the scuPA-suPAR complex to LM-TK^− cells” value is “minimal increase” and the “effect on binding of the tcuPA-suPAR complex to LM-TK^− cells” value was “had no effect”. For the same substance, the “increase in the value of Bmax for scuPA binding to LM-TK^− cells” value in experiment [1] (presence versus absence of the peptide, two hours at 4° C.) is recorded as “four-fold”. For the same substance, in experiment [1] (read-out: peptide concentration for half maximal stimulation of scuPA binding to LM-TK^− cells, FIG. 1B), the EC50 was roughly 50 µM. The “scuPA-binding-promoting effect in the presence of PAI-1” value in experiment [1] (scuPA preincubated with PAI-1, FIG. 2) is given as “identical to the effect observed in the absence of PAI-1”. The “effect on internalization and degradation of scuPA by LM-TK^− cells” value with LM-TK^− cells (eighteen hours at 37° C., FIG. 6) was “promoted both internalization and degradation; also recorded: accelerated the rate of internalization and degradation”. The “inhibition of PAI-1 activity” value against PAI-1 is “inhibits PAI-1 activity; also recorded: competitive inhibitor of PAI-1 binding to tcuPA”. Besides, in the experiment on purified α2MR/LRP, the “effect on binding of tcuPA to purified α2MR/LRP” value is reported as “had no effect” and the “effect on binding of the scuPA-suPAR complex to α2MR/LRP” value was “had no effect”. Besides, in the experiment with purified α2MR/LRP (FIG. 5A), the “effect on binding of scuPA to purified α2MR/LRP” value is “promoted binding of scuPA to purified α2MR/LRP”. Further, the “effect on scuPA-uPAR complex formation” value at scuPA-uPAR complex is on record as “did not affect”.
Consider “rRAP: recombinant 39 kilodalton α2MR/LRP. (receptor-associated protein), inhibits ligand binding to α2MR/LRP [reference compound]”, for which, in experiment [1] (400 nanomolar rRAP, FIG. 5B), the “inhibition of EEIIMD-promoted binding of scuPA to LM-TK^− cells” value was “approximately 70%”. The “inhibition of EEIIMD-promoted scuPA internalization and degradation by LM-TK^− cells” value in the experiment on LM-TK^− cells (400 nanomolar rRAP) is “approximately 70%”. Further, the “effect on EEIIMD-promoted binding of scuPA to purified α2MR/LRP” value in the experiment on purified α2MR/LRP (200 nanomolar rRAP, FIG. 5A) is listed as “inhibited”.
Take “EEIIMR [hexapeptide, carboxyl terminal Asp of EEIIMD substituted by Arg; control peptide]”: the “scuPA-binding-promoting activity relative to that of peptide EEIIMD” value in experiment [1] (LM-TK^− cells, FIG. 1A) is listed as “approximately 20%”. The “inhibition of PAI-1 activity” value with PAI-1 is given as “did not inhibit PAI-1 activity”.
On to “REIIMD [hexapeptide, amino terminal Glu of EEIIMD substituted by Arg]”, for which the “promotion of scuPA binding to LM-TK^− cells” value in experiment [1] (FIG. 1A) was “nearly as potent a promoter of scuPA binding to LM-TK^− cells as was peptide EEIIMD”.
